This note sets out measurements from patent publication US11021476B2, “Pyrroloquinoline quinone monosodium and method for producing the same, and composition comprising the same” (Mitsubishi Gas Chemical Company, Inc., priority 2016, dated 2021).

Data set [1] in a line: Bulk density measurement. The data set is classed as physicochemical. The settings on record: 10 mL volumetric flask. As to the method:
Bulk density was measured using a 10 mL volumetric flask.

The nature of data set [2]: Suspension fluidity test. It counts as physicochemical. Conditions: 100 g/L in water, mixed at room temperature, observed at 4° C.
The nature of data set [3]: Solubility and color of mixtures. The data set is classed as physicochemical. The protocol: Powders were mixed in a proportion shown in Table 3, and the color of the powder was recorded. 1 mL of water was added to a crystal mass of 10 mg at room temperature. […] The aqueous solution after the cooling was centrifuged, and the supernatant liquid was removed. This was diluted with a phosphate buffer, and the solubility was calculated from absorbance at 330 nm.

Data set [4] is described as follows: Thermal stability test (70° C. color change test). Conditions: 1 mg crystals in 70° C. oven. The data set is classed as physicochemical. As to the method:
1 mg of the crystals obtained in each of Examples 1 and 6 and Comparative Example 2 were placed in a 70° C. oven, and a change in color after 2 hours was observed.

A short description of data set [5]: Thermal stability test (solubility change at 180° C. for 10 minutes). The data set is classed as physicochemical. The settings on record: for State of dissolution after heating at 180° C. for 10 minutes: 1 mg heated on hot plate, then 10 mL water, stirred 15 minutes; for State of dissolution after heating at 180° C. for 10 minutes (with 100 before heating): solubility from absorbance at 330 nm, solubility before heating = 100. The protocol:
Whether the solubility of crystals changed by heat treatment was tested. […] At this time, the state was recorded. The aqueous solution after the stirring was filtered through a 0.5 μm filter and diluted to 1/10, and absorbance at 330 nm was measured. A change in the solubility of the crystals before and after the heat treatment was examined by this measurement.

Data set [6] can be described thus: Reaction with powdered green tea. It counts as physicochemical. Conditions: 2 mg powdered green tea + 1 mg crystals + 100 μL water. As to the method: 2 mg of powdered green tea and 1 mg of the crystals obtained in each of Examples 1 and 6 and Comparative Example 2 were mixed. As a model in which the mixed powder was wet, 100 μL of water was added. […] The crystals 2 were very stable and excellent in powder mixing.

The nature of data set [7]: Test of penetration into skin. The settings on record: 5 mg crystals on pig skin, 80 minutes at 37° C.; [(untreated − treated)/untreated brightness]×100.
Experimental: The skin of a pig was washed with tap water, and the water was completely wiped off. 5 mg of one of crystals was brought into contact with this skin of the pig and then fixed to the skin by wrapping in plastic wrap. After 80 minutes at 37° C., the tape was peeled, and the skin was washed with tap water to remove the test composition adhering to the skin surface. Evaluation was performed by capturing an image of the test composition by a scanner and measuring a change in the brightness of the skin using image software (product name: Paint (software included with Windows (registered trademark) XP, manufactured by Microsoft Corporation). At this time, the change in the brightness of the skin was calculated by [[brightness of untreated skin−brightness after treatment]/[brightness of untreated skin]]×100.

On to “Dipyrroloquinoline quinone monosodium [Example 7]”, for which, in data set [1], the Bulk specific gravity was 0.27 g/mL. The “Fluidity when crystals are added to water” value (from here on “Fluidity”) in data set [2] is listed as “Yes”. Also, the Solubility in data set [3] (10 mg in 1 mL water, ultrasonic 5 min, 70 degrees 10 min, cooled 30 min at room temperature, absorbance at 330 nm) amounted to 2.1 mM. In addition, the “Color in form of powder” value in data set [3] is “Black”. In data set [4], the “Change in color after 2 hours at 70° C.” value is given as “No change”. Moreover, in data set [5], the “State of dissolution after heating at 180° C. for 10 minutes” value is “All dissolve” and the “State of dissolution after heating at 180° C. for 10 minutes (with 100 before heating)” value (shortened to “State of dissolution … (with 100 before heating)”) amounted to 100. In addition, the “Color change of tea leaves” value in data set [6] is given as “did not change color”. Besides, the “Penetration (change in the brightness of the skin)” value in data set [7] came to 4.3.
Consider `O=C(O)c1cc(C(=O)O)c2c(n1)C(=O)C(=O)c1cc(C(=O)O)[nH]c1-2.[Na]` [Example 1, Pyrroloquinoline Quinone Monosodium], for which the Bulk specific gravity in data set [1] turned out to be 0.29 g/mL. Also, in data set [2], the “Fluidity” value is “Yes”. For the same compound, in data set [3], the “Color in form of powder” value is “Deep red”. The solubility at 30 min in data set [3] (thermodynamic from solid, 10 mg in 1 mL water, ultrasonic 5 min, 70 degrees 10 min, cooled 30 min at room temperature, absorbance at 330 nm) amounted to 4.5 mM. Besides, in data set [4], the “Change in color after 2 hours at 70° C.” value is “No change”. Also, in data set [5], the “State of dissolution after heating at 180° C. for 10 minutes” value is “All dissolve” and the “State of dissolution … (with 100 before heating)” value came to 82. Besides, the “Color change of tea leaves” value in data set [6] is listed as “changed color to orange”. Also, the “Penetration (change in the brightness of the skin)” value in data set [7] was determined as 8.4.
In turn, `O=C(O)c1cc(C(=O)[O-])c2c(n1)C(=O)C(=O)c1cc(C(=O)O)[nH]c1-2.[Na+]` [Comparative Example 2, reference compound] had a Bulk specific gravity in data set [1] of 0.20 g/mL. Moreover, the “Fluidity” value in data set [2] is “No”. The “Change in color after 2 hours at 70° C.” value in data set [4] is recorded as “Change to black”. Further, in data set [5], the “State of dissolution … (with 100 before heating)” value is given as 71. For the same compound, the “Color change of tea leaves” value in data set [6] was “changed color to orange”. The “Penetration (change in the brightness of the skin)” value in data set [7] came to 1.6.
As to `O=C(O)c1cc(C(=O)O)c2c(n1)C(=O)C(=O)c1cc(C(=O)O)[nH]c1-2.[Na].[Na]` [Raw material, pyrroloquinoline quinone disodium, reference compound], the “Color in form of powder” value in data set [3] is given as “Red”.

By Solubility is commonly meant how much of the substance goes into solution per volume. A word on the solubility: it is the concentration that dissolves in the medium under given conditions.
